Here are results for six compounds from patent EP4725956A1, “MODIFIED POLYPEPTIDE AND USE THEREOF IN FIELD OF ANALGESIA” (Nanjing Anji Biotechnology Co., Ltd., priority 2023, dated 2024).

Positions of bridges follow the written chain, without caps; N, C: chain ends. Non-standard residues stand in square brackets, D forms with d. Residues, ends and D or L forms follow the SMILES beside them. Hyp = O=C(O)[C@@H]1C[C@@H](O)CN1; Aib = CC(C)(N)C(=O)O

One series addresses T1, α9 nAChR (Homo sapiens, UniProt Q9UGM1).
T1 construct: inferred from capture on NTA sensor
The experiment in a line: BLI (biolayer interferometry) affinity of peptides to α9 nAChR. In kind it is binding. The settings on record: NTA sensor, α9 nAChR 5 µg/mL, peptide 1.372-1000 nM in PBS. An excerpt: (§1) BLI is a label-free technology that converts optical interference signals occurring on the surface of BLI biosensors into real-time response signals. By monitoring the molecular binding process in real time, the system determines association rate constants (ka or kon), dissociation rate constants (kd or koff), and initial binding rates, and calculates affinity (KD) by fitting analysis. Here are the specific procedures: NTA sensors (Sartorius) were placed in a pre-wetting tray, which was then positioned in a black 96-well plate with 200 µL PBS per well. The NTA sensors were pre-wetted for at least 15 minutes. The target protein α9 nAChR was diluted in PBS to 5 µg/mL, with 200 µL added per well. Test peptides were dissolved in PBS and serially diluted threefold, with concentrations from high to low as 1000 nM, 333.3 nM, 111.1 nM, 37.04 nM, 12.35 nM, 4.115 nM, and 1.372 nM, with an additional well with PBS only as a zeroconcentration control. After equilibrating the instrument baseline, the NTA sensor was used to immobilize the target protein α9 nAChR. Once immobilization was complete, the baseline was re-equilibrated, followed by a 5-minute association and a 5-minute dissociation phase. Affinity measurements of the test peptides were conducted sequentially using the above procedure. The procedure for measuring peptide affinity to α7 nAChR was similar, except that the α7 nAChR concentration was 20 µg/mL. Tables 2 and 3 show the BLI-determined affinities of alanine-scan peptide analogs with target proteins, which identified sites on the parent peptide suitable for modification. Subsequently, single-site non-natural amino acid substituted peptides were evaluated by BLI for target protein affinity. Finally, multi-site combinatorial modified peptides were measured for affinity by BLI, leading to the selection of high-affinity peptides for further screen and drug development potential. Table 2 Test Results for Affinity of Modified Peptides to α9 nAChR
In general terms: Biolayer interferometry detects binding as a change in optical thickness at a sensor tip.

A short description of series [1]: Plasma stability of AJ003-40 and AJ003-24 (HPLC, Example 4). In kind it is in vitro ADME. The note with it: human plasma; for main peak area: 2 mg/mL. As to the method:
Peptides AJ003-40 and AJ003-24 were separately weighed and mixed with human plasma to prepare solutions at 2 mg/mL. 300 µL of peptide-containing plasma was mixed with 300 µL acetonitrile, centrifuged at 4°C and 12,000 rpm for 5 minutes, and the supernatant was filtered through an organic membrane. 200 µL of the filtrate was transferred to an LC vial as the 0 h sample. Peptide-containing plasma was incubated in a 37°C water bath. For AJ003-40, 300 µL of plasma was sampled at 24 h, mixed with 300 µL acetonitrile, centrifuged, filtered, and 200 µL of the filtrate was transferred to an LC vial as the 24 h sample. For AJ003-24, 300 µL of plasma was sampled at 22 h, processed similarly, and 200 µL of the filtrate was transferred to an LC vial as the 22 h sample.

In series [2] the test system is mouse oxaliplatin acute chemotherapy pain model. The series is described as follows: Mouse oxaliplatin chemotherapy pain model, multiple peptides (Example 8). The note with it: single dose 3 mg/kg s.c., 0.5-8 h post-dose, n=3. In kind it is in vivo. As to the method:
Oxaliplatin was dissolved in 5% glucose solution to a concentration of 1 mg/mL. For model induction, each male C57 mouse (Shanghai Bikai Keyi Biotechnology Co., Ltd.) received a single intraperitoneal injection of oxaliplatin at 10 mg/kg. Mice in the negative control or blank control group received 5% glucose solution. Approximately one week after model induction, mechanical pain thresholds of the mice were measured three times per mouse, and the average value was calculated. Mice were then randomly assigned to groups based on their pain thresholds. Drug administration was carried out according to the dosing schedule shown in Table 7, with a single dose per mouse. Mechanical pain thresholds were measured at 0.5, 1, 2, 4, 6, and 8 h post-dose. […] Table 7 Dosing Scheme for Oxaliplatin Chemotherapy Pain Model in Mice

A further series addresses α7 nAChR (Homo sapiens, UniProt P36544). The series is described as follows: BLI (biolayer interferometry) affinity of peptides to α7 nAChR. In kind it is binding. On the set-up: inferred from the 'similar' procedure on NTA sensors. The note with it: NTA sensor, α7 nAChR 20 µg/mL, peptide 1.372-1000 nM in PBS.
From the text: as §1

The next series addresses α9α10 nAChRs (Homo sapiens, UniProt Q9GZZ6+Q9UGM1). The note with it: cited from earlier work.
Another series addresses Cav2.2 channel (Homo sapiens, UniProt Q00975). The note with it: cited from earlier work.

T1 sequence (Q9UGM1 23-479): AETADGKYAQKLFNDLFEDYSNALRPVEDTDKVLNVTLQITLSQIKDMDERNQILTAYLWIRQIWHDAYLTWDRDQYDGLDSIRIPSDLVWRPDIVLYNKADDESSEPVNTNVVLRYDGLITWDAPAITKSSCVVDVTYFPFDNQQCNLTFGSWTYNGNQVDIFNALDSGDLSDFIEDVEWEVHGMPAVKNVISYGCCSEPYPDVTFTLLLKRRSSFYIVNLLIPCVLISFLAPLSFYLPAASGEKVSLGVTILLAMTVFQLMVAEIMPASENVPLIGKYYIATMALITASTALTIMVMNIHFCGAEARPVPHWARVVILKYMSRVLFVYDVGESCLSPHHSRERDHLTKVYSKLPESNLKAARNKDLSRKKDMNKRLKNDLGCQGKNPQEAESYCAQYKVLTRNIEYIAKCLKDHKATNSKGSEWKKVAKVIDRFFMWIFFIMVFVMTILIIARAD
Sequence of α9α10 nAChRs (Q9UGM1 26-479 limits assumed): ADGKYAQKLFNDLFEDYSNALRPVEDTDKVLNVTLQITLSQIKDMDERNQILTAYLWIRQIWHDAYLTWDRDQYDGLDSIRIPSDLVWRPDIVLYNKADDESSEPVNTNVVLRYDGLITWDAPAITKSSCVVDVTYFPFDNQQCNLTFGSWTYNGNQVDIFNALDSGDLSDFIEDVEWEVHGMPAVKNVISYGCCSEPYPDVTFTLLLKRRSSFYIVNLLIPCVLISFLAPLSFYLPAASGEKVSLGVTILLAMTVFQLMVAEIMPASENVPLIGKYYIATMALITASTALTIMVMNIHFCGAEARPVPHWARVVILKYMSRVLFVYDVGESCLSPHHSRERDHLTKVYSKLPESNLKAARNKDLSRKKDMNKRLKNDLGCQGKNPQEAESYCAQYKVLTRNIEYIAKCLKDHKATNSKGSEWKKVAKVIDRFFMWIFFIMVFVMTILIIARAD
Sequence of α9α10 nAChRs (Q9GZZ6 25-450): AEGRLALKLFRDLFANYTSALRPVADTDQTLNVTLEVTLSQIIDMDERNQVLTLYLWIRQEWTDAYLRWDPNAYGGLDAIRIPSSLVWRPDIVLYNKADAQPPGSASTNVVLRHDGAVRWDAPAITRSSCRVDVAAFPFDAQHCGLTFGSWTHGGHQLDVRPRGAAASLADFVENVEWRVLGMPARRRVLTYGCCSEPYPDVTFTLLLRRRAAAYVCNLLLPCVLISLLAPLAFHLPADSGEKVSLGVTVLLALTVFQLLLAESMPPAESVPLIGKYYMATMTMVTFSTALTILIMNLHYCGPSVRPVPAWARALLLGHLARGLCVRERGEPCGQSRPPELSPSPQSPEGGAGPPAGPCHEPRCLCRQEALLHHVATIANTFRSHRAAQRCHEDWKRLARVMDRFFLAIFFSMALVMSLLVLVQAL
Sequence of Cav2.2 channel (Q00975 whole entry, looked up): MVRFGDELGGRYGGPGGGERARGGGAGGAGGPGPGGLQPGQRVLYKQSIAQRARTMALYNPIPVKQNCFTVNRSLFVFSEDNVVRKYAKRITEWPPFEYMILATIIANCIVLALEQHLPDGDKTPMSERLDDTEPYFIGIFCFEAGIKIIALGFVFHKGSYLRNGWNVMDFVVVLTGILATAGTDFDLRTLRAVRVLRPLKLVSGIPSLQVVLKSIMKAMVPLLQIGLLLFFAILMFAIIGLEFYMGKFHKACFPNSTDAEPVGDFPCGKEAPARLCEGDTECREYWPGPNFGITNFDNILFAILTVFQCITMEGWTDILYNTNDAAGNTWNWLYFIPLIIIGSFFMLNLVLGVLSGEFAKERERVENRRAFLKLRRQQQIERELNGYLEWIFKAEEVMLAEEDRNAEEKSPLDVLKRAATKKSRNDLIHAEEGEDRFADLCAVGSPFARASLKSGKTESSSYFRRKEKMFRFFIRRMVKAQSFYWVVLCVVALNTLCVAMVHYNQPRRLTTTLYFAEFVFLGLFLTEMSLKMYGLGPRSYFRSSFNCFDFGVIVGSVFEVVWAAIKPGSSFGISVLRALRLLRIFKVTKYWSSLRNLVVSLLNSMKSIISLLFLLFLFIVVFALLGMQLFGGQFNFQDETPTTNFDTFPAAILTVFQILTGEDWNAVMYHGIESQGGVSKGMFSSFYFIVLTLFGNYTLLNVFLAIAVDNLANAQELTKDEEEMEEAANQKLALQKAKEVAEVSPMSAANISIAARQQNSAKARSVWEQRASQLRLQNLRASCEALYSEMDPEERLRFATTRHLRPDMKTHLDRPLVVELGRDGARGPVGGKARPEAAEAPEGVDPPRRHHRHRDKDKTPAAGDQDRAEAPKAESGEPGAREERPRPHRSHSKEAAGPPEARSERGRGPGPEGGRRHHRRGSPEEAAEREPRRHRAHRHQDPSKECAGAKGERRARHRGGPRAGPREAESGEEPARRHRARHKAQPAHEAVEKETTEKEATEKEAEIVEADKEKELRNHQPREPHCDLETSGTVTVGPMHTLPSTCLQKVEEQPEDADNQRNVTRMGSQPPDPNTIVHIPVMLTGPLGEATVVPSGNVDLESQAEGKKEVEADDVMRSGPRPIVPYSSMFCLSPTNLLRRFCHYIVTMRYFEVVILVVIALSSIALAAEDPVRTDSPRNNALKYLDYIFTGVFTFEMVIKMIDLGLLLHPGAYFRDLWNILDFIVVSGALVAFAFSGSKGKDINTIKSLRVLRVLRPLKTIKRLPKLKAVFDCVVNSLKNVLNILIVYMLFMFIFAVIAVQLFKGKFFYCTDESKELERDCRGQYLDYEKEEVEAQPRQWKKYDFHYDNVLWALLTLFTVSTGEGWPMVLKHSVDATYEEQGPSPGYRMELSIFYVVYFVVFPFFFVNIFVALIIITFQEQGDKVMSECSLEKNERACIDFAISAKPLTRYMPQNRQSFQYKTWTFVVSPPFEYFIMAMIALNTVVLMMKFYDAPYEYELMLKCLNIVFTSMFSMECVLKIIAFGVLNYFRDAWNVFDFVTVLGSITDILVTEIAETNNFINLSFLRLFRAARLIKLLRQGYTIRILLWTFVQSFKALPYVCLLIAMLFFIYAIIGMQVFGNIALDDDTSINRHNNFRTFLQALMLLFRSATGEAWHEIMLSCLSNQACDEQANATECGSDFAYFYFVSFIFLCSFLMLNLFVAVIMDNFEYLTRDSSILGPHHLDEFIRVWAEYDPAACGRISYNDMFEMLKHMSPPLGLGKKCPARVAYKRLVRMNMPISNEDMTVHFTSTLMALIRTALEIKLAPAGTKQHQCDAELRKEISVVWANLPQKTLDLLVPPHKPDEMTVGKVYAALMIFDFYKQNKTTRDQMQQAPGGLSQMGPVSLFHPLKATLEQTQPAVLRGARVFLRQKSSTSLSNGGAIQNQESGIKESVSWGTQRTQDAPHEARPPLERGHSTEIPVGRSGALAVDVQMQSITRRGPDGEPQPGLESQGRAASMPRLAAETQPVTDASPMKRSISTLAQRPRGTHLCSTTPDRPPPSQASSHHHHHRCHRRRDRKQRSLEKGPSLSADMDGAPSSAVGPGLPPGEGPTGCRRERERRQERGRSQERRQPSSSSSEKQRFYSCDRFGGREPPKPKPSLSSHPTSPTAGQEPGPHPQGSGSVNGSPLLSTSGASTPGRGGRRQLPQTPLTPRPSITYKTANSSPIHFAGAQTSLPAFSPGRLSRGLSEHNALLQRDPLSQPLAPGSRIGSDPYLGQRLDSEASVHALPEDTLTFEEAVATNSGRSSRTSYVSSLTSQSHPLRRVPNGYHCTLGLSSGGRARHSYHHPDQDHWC
Sequence of α7 nAChR (P36544 23-502): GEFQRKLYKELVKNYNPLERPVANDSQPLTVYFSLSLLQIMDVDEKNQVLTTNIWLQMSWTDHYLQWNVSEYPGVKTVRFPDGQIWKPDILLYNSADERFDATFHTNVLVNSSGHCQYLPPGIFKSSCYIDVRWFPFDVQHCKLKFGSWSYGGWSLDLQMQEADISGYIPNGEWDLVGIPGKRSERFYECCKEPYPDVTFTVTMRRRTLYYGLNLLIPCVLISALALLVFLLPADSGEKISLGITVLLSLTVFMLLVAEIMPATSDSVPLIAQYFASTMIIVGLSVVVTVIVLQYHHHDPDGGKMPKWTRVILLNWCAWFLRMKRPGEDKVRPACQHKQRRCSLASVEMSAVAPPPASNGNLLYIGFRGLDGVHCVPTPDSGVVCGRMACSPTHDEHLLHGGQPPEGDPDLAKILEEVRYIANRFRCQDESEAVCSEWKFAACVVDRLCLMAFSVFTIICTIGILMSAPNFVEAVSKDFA

A word on the Kd: it is the constant that tells how readily two partners part at equilibrium. The low end stands for tighter binding, the high end for weaker binding. The compound `CC(C)C[C@H](NC(=O)[C@@H](NC(=O)[C@H]1CSSC[C@H](NC(=O)[C@H](CO)NC(=O)CN)C(=O)N[C@@H](CO)C(=O)N[C@H]([C@H](C)O)C(=O)N2C[C@H](O)C[C@H]2C(=O)N2CCC[C@H]2C(=O)N[C@@H](CO)C(=O)N1)C(C)C)C(=O)N[C@@H](Cc1ccc(O)cc1)C(=O)N[C@@H](CO)C(=O)O` [AJ003-16, GSCS-(D-Thr)-Hyp-PS-(D-Cys)-VLYS (3,9 disulfide bond)] (H-GSCS[dT][Hyp]PS[dC]VLYS-OH; disulfide 3-9) displayed an equilibrium dissociation constant (Kd) at α9 nAChR of 0.0353 µM. On the same count and under the same terms, the figure for `CC(C)C[C@H](NC(=O)[C@@H](NC(=O)[C@H]1CSSC[C@H](NC(=O)[C@H](CO)NC(=O)CN)C(=O)N[C@@H](CO)C(=O)N[C@H]([C@H](C)O)C(=O)N2CCC[C@H]2C(=O)N2C[C@H](O)C[C@H]2C(=O)N[C@@H](CO)C(=O)N1)C(C)C)C(=O)N[C@@H](Cc1ccc(O)cc1)C(=O)N[C@@H](CO)C(=O)O` [AJ003-17, GSCS-(D-Thr)-P-Hyp-S-(D-Cys)-VLYS (3,9 disulfide bond)] (H-GSCS[dT]P[Hyp]S[dC]VLYS-OH; disulfide 3-9) is 0.11 µM.

Take `CC(C)C[C@H](NC(=O)[C@@H](NC(=O)[C@H]1CSSC[C@H](NC(=O)[C@H](CO)NC(=O)CN)C(=O)N[C@@H](CO)C(=O)N[C@H]([C@H](C)O)C(=O)N2CCC[C@H]2C(=O)N2CCC[C@H]2C(=O)NCC(=O)N1)C(C)C)C(=O)N[C@@H](Cc1ccc(O)cc1)C(=O)N[C@@H](CO)C(=O)O` [AJ003-24, GSCS-(D-Thr)-PPG-(D-Cys)-VLYS (3,9 disulfide bond)] (H-GSCS[dT]PPG[dC]VLYS-OH; disulfide 3-9): the main peak area in series [1] (0 h) is on record as 746.80; in series [1] (37°C, 22 h), 267.45. Moreover, in series [1] (37°C, 22 h, read-out: degradation), the metabolised at 22 h, 2 mg/mL worked out at 64.2%. Besides, the “analgesic activity against oxaliplatin-induced chemotherapy pain (mechanical pain threshold compared with the model group)” value in series [2] was “ineffective”. Consider `CC(C)C[C@H](NC(=O)C(C)(C)NC(=O)[C@H]1CSSC[C@H](NC(=O)[C@H](CO)NC(=O)CN)C(=O)N[C@@H](CO)C(=O)N[C@H]([C@H](C)O)C(=O)N2CCC[C@H]2C(=O)N2CCC[C@H]2C(=O)N[C@@H](CO)C(=O)N1)C(=O)N[C@@H](Cc1ccc(O)cc1)C(=O)N[C@@H](CO)C(=O)O` [AJ003-25, GSCS-(D-Thr)-PPS-(D-Cys)-Aib-LYS (3,9 disulfide bond)] (H-GSCS[dT]PPS[dC][Aib]LYS-OH; disulfide 3-9), for which the “analgesic activity against oxaliplatin-induced chemotherapy pain (mechanical pain threshold compared with the model group)” value in series [2] is on record as “ineffective”. Besides, binding on α7 nAChR was characterised by a dissociation constant (Kd) of 4.67 µM. For Vc1.1, at α9α10 nAChRs, the “reduction of activity on human receptors compared to rat receptors” value is recorded as “approximately 100 fold”. Consider ziconotide, for which the “analgesic potency relative to opioids” value at Cav2.2 channel is given as “approximately 1000 times”.
